Experimental data published in patent publication US11078170B2 (Assembly Biosciences, Inc., priority 2017, dated 2021).

test system: HBV viral production from HepAD38 cells; experiment: Activity of test compounds on viral production from HepAD38 cells (viral load by qPCR of HBV core sequence in supernatant); type: cell-based; conditions: Hepatitis B virus, 120 h, 5 days incubation, HBV DNA in supernatant by qPCR, top concentration 10 μM, read-out: Viral Load EC50 Activity range
Summary of the method: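 EC50 and CC50 come from four-parameter fits of supernatant viral load and CellTiter-Glo viability, respectively. Viral load was measured by core-region TaqMan qPCR against HBV DNA standards and compared with DMSO controls. Tet-free HepAD38 cells (50,000/well, 2% FBS) were exposed to compound, highest 10 μM, for 5 days at 37° C.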

SMILES | EC50
CN1[C@H](C(=O)Nc2ccc(F)c(Cl)c2)C[C@H](c2cc(Cl)c(-c3cnn(C)c3)s2)NS1(=O)=O [HBV-CSU-302-ISO-I, Cis-N-(3-Chloro-4-fluorophenyl)-5-(4-chloro-5-(1-methyl-1H-pyrazol-4-yl)thiophen-2-yl)-2-methyl-1,2,6-thiadiazinane-3-carboxamide 1,1-dioxide] | < 1 µM
CS(=O)(=O)CCN1C(C(=O)Nc2ccc(F)c(Cl)c2)CC(c2nccs2)NS1(=O)=O (racemic) [HBV-CSU-073, Cis-N-(3-Chloro-4-fluorophenyl)-2-(2-(methylsulfonyl)ethyl)-5-(thiazol-2-yl)-1,2,6-thiadiazinane-3-carboxamide 1,1-dioxide] | > 5 µM
CCc1sc(C2CC(C(=O)Nc3ccc(F)c(Cl)c3)N(C)S(=O)(=O)N2)cc1Br (centres unmarked) [HBV-CSU-334, 5-(4-bromo-5-ethylthiophen-2-yl)-N-(3-chloro-4-fluorophenyl)-2-methyl-1,2,6-thiadiazinane-3-carboxamide 1,1-dioxide] | < 1 µM
CN1[C@H](C(=O)Nc2ccc(F)c(Cl)c2)C[C@H](c2cc(-c3ccc(C#N)c(F)c3)cs2)NS1(=O)=O [HBV-CSU-164-ISO-I, Cis-N-(3-chloro-4-fluorophenyl)-5-(4-(4-cyano-3-fluorophenyl)thiophen-2-yl)-2-methyl-1,2,6-thiadiazinane-3-carboxamide 1,1-dioxide] | < 1 µM
CCOCCN1[C@H](C(=O)Nc2ccc(F)c(Cl)c2)C[C@H](c2nccs2)NS1(=O)=O (relative stereo) [HBV-CSU-142-ISO-II, Cis-N-(3-Chloro-4-fluorophenyl)-2-(2-ethoxyethyl)-5-(thiazol-2-yl)-1,2,6-thiadiazinane-3-carboxamide 1,1-dioxide] | < 1 µM
CN1[C@@H](C(=O)Nc2ccc(F)c(Cl)c2)C[C@@H](c2cc(-c3cnn(C)c3)c(Cl)s2)NS1(=O)=O [HBV-CSU-306-ISO-II, Cis-5-(5-chloro-4-(1-methyl-1-pyrazol-4-yl)thiophen-2-yl)-N-(3-chloro-4-fluorophenyl)-2-methyl-1,2,6-thiadiazinane-3-carboxamide 1,1-dioxide] | > 5 µM
CN1[C@H](C(=O)Nc2cc(Cl)cc(Cl)c2)C[C@H](c2cccs2)NS1(=O)=O [HBV-CSU-047-ISO-I, Cis-N-(3,5-Dichlorophenyl)-2-methyl-5-(thiophen-2-yl)-1,2,6-thiadiazinane-3-carboxamide 1,1-dioxide] | < 1 µM
CN1[C@H](C(=O)Nc2ccc(F)c(Cl)c2)C[C@H](c2ccc(-c3cncs3)s2)NS1(=O)=O [HBV-CSU-268-ISO-I, Cis-N-(3-Chloro-4-fluorophenyl)-2-methyl-5-(5-(thiazol-5-yl)thiophen-2-yl)-1,2,6-thiadiazinane-3-carboxamide 1,1-dioxide] | < 1 µM
CN(C)CCCOc1ccc([C@@H]2C[C@H](C(=O)Nc3ccc(F)c(Cl)c3)N(C)S(=O)(=O)N2)cc1 [HBV-CSU-208-ISO-I, Cis-N-(3-chloro-4-fluorophenyl)-5-(4-(3-(dimethylamino)propoxy)phenyl)-2-methyl-1,2,6-thiadiazinane-3-carboxamide 1,1-dioxide] | > 5 µM
CN1[C@@H](C(=O)Nc2ccc(F)c(Cl)c2)C[C@@H](c2cccc(F)c2)NS1(=O)=O [HBV-CSU-231-ISO-II, Cis-N-(3-Chloro-4-fluorophenyl)-5-(3-fluorophenyl)-2-methyl-1,2,6-thiadiazinane-3-carboxamide 1,1-dioxide] | > 5 µM
O=C(Nc1ccc(F)c(Cl)c1)C1CC(c2nccs2)NS(=O)(=O)N1 (stereo not drawn) [HBV-CSU-096, Cis-N-(3-Chloro-4-fluorophenyl)-5-(thiazol-2-yl)-1,2,6-thiadiazinane-3-carboxamide 1,1-dioxide] | 1 to 5 µM
COc1ccc(-c2ccc([C@@H]3C[C@H](C(=O)Nc4ccc(F)c(Cl)c4)N(C)S(=O)(=O)N3)s2)cc1 [HBV-CSU-240-ISO-II] | 1 to 5 µM
Cc1ccc([C@H]2C[C@@H](C(=O)Nc3ccc(F)c(Cl)c3)N(C)S(=O)(=O)N2)s1 [HBV-CSU-115-ISO-I, Cis-N-(3-chloro-4-fluorophenyl)-2-methyl-5-(5-methylthiophen-2-yl)-1,2,6-thiadiazinane-3-carboxamide 1,1-dioxide] | < 1 µM
CN1C(C(=O)Nc2ccc(F)c(F)c2)CC(c2cccs2)NS1(=O)=O (stereo not drawn) [HBV-CSU-011, Cis-N-(3,4-difluorophenyl)-2-methyl-5-(thiophen-2-yl)-1,2,6-thiadiazinane-3-carboxamide 1,1-dioxide] | < 1 µM
CN(C)CCCOc1ccc(C2CC(C(=O)Nc3ccc(F)c(Cl)c3)N(C)S(=O)(=O)N2)cc1 (racemic) [HBV-CSU-208, Cis-N-(3-chloro-4-fluorophenyl)-5-(4-(3-(dimethylamino)propoxy)phenyl)-2-methyl-1,2,6-thiadiazinane-3-carboxamide 1,1-dioxide] | < 1 µM
CN1[C@H](C(=O)Nc2ccc(F)c(Cl)c2)C[C@H](c2ncc(-c3cn[nH]c3)s2)NS1(=O)=O [HBV-CSU-254-ISO-I, Cis-5-(5-(1H-pyrazol-4-yl)thiazol-2-yl)-N-(3-chloro-4-fluorophenyl)-2-methyl-1,2,6-thiadiazinane-3-carboxamide 1,1-dioxide] | < 1 µM
CN1[C@H](C(=O)Nc2ccc(F)c(Cl)c2)C[C@H](c2cc(-c3cccnc3)cs2)NS1(=O)=O [HBV-CSU-167-ISO-I, Cis-N-(3-chloro-4-fluorophenyl)-2-methyl-5-(4-(pyridin-3-yl)thiophen-2-yl)-1,2,6-thiadiazinane-3-carboxamide 1,1-dioxide] | < 1 µM
CN1[C@@H](C(=O)Nc2ccc(F)c(Cl)c2)C[C@@H](c2ncc(-c3cncs3)s2)NS1(=O)=O [HBV-CSU-278-ISO-II, Cis-5-([5,5′-Bithiazol]-2-yl)-N-(3-chloro-4-fluorophenyl)-2-methyl-1,2,6-thiadiazinane-3-carboxamide 1,1-dioxide] | > 5 µM
O=C(Nc1ccc(F)c(Cl)c1)C1CC(c2nccs2)NS(=O)(=O)N1CCCO (racemic) [HBV-CSU-078, Cis-N-(3-Chloro-4-fluorophenyl)-2-(3-hydroxypropyl)-5-(thiazol-2-yl)-1,2,6-thiadiazinane-3-carboxamide 1,1-dioxide] | 1 to 5 µM
O=C(Nc1ccc(F)c(Cl)c1)[C@@H]1C[C@H](c2nccs2)NS(=O)(=O)N1CCCN1CCCC1 [HBV-CSU-102-ISO-II, Cis-N-(3-Chloro-4-fluorophenyl)-2-(3-(pyrrolidin-1-yl)propyl)-5-(thiazol-2-yl)-1,2,6-thiadiazinane-3-carboxamide 1,1-dioxide] | > 5 µM
COCCN1[C@H](c2cccs2)C[C@H](C(=O)Nc2ccc(F)c(Cl)c2)NS1(=O)=O [HBV-CSU-044-ISO-I, Cis-N-(3-Chloro-4-fluorophenyl)-6-(2-methoxyethyl)-5-(thiophen-2-yl)-1,2,6-thiadiazinane-3-carboxamide 1,1-dioxide] | > 5 µM
[2H]C1C([2H])(c2ccc(Br)s2)NS(=O)(=O)N(C)C1([2H])C(=O)Nc1ccc(F)c(Cl)c1 (stereo not drawn) [HBV-CSU-371, Cis-5-(5-Bromothiophen-2-yl)-N-(3-chloro-4-fluorophenyl)-2-methyl-1,2,6-thiadiazinane-3,4,5-d3-3-carboxamide 1,1-dioxide] | < 1 µM
CN1C(C(=O)Nc2ccc(F)c(Cl)c2)CC(c2ccc(-c3cncn3C)s2)NS1(=O)=O (racemic) [HBV-CSU-267, Cis-N-(3-Chloro-4-fluorophenyl)-2-methyl-5-(5-(1-methyl-1H-imidazol-5-yl)thiophen-2-yl)-1,2,6-thiadiazinane-3-carboxamide 1,1-dioxide] | < 1 µM
